# Results from PubChem BioAssay (NCI).
#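 96-well plates; 48 h exposure; 5 concentrations. Endpoints by linear interpolation between flanking doses. Not reached: highest tested concentration assigned. At the TGI there is no net growth.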
# Experiments:
# Assay in all cases: DTP human tumour cell line panel, 48 h
# [1] = system: DMS 114 small cell lung
# [2] = system: 786-0 renal
# [3] = system: OVCAR-3 ovarian
# [4] = system: DLD-1 colon
# [5] = system: MALME-3M melanoma
# [6] = system: SF-539 CNS
# [7] = system: HT29 colon
# [8] = system: LOX IMVI melanoma
# [9] = system: DMS 273 small cell lung
# [10] = system: OVCAR-5 ovarian
# [11] = system: SNB-75 CNS
# [12] = system: M19-MEL melanoma
# [13] = system: K-562 leukemia
# [14] = system: RPMI-8226 leukemia
# [15] = system: CAKI-1 renal
# [16] = system: HOP-18 NSCLC
# [17] = system: CCRF-CEM leukemia
# [18] = system: ACHN renal
# [19] = system: SK-MEL-28 melanoma
# [20] = system: SW-620 colon
# [21] = system: HL-60(TB) leukemia
# [22] = system: COLO 205 colon
# [23] = system: HCT-15 colon
# [24] = system: SK-MEL-5 melanoma
# [25] = system: IGROV1 ovarian
# [26] = system: SF-268 CNS
# [27] = system: SNB-78 CNS
# [28] = system: MOLT-4 leukemia
# [29] = system: SNB-19 CNS
# [30] = system: NCI-H460 lung
# [31] = system: SN12C renal
# [32] = system: UACC-62 melanoma
# [33] = system: M14 melanoma
# [34] = system: HOP-62 NSCLC
# [35] = system: A498 renal
# [36] = system: SF-295 CNS
# [37] = system: SK-OV-3 ovarian
# [38] = system: U251 CNS
# [39] = system: OVCAR-8 ovarian
# [40] = system: OVCAR-4 ovarian
# [41] = system: A549 NSCLC
# [42] = system: EKVX NSCLC
# [43] = system: LXFL 529 NSCLC
# [44] = system: SK-MEL-2 melanoma
# [45] = system: XF 498 CNS
# [46] = system: UACC-257 melanoma
# [47] = system: TK-10 renal
# [48] = system: NCI-H522 lung
# [49] = system: HCT-116 colon
# [50] = system: UO-31 renal
# [51] = system: HOP-92 NSCLC
# [52] = system: KM20L2 colon
# [53] = system: NCI-H23 lung
# [54] = system: KM12 colon
compound,measurement,setting,value
CCCN1CN(C(C(=O)N[C@@H]2C(=O)N3C2SC(C)(C)C3C(=O)O)c2ccccc2)CSC1=S (some centres undefined),TGI,[1],94.1 µM
same,TGI,[2],> 100 µM
same,TGI,[3],> 100 µM
same,TGI,[4],> 100 µM
same,TGI,[5],> 100 µM
same,TGI,[6],> 100 µM
same,TGI,[7],> 100 µM
same,TGI,[8],> 100 µM
same,TGI,[9],> 100 µM
same,TGI,[10],> 100 µM
same,TGI,[11],> 100 µM
same,TGI,[12],> 100 µM
same,TGI,[13],> 100 µM
same,TGI,[14],> 100 µM
same,TGI,[15],> 100 µM
same,TGI,[16],> 100 µM
same,TGI,[17],> 100 µM
same,TGI,[18],> 100 µM
same,TGI,[19],> 100 µM
same,TGI,[20],31.7 µM
same,TGI,[21],> 100 µM
same,TGI,[22],> 100 µM
same,TGI,[23],> 100 µM
same,TGI,[24],> 100 µM
same,TGI,[25],> 100 µM
same,TGI,[26],> 100 µM
same,TGI,[27],> 100 µM
same,TGI,[28],> 100 µM
same,TGI,[29],> 100 µM
same,TGI,[30],> 100 µM
same,TGI,[31],> 100 µM
same,TGI,[32],> 100 µM
same,TGI,[33],> 100 µM
same,TGI,[34],> 100 µM
same,TGI,[35],> 100 µM
same,TGI,[36],> 100 µM
same,TGI,[37],> 100 µM
same,TGI,[38],> 100 µM
same,TGI,[39],> 100 µM
same,TGI,[40],> 100 µM
same,TGI,[41],> 100 µM
same,TGI,[42],> 100 µM
same,TGI,[43],> 100 µM
same,TGI,[44],> 100 µM
same,TGI,[45],> 100 µM
same,TGI,[46],> 100 µM
same,TGI,[47],> 100 µM
same,TGI,[48],81.5 µM
same,TGI,[49],> 100 µM
same,TGI,[50],> 100 µM
same,TGI,[51],> 100 µM
same,TGI,[52],> 100 µM
same,TGI,[53],> 100 µM
same,TGI,[54],> 100 µM
